Reference: patent publication US11993574B2, “Pyrazole and imidazole compounds for inhibition of IL-17 and RORgamma” (REATA PHARMACEUTICALS, INC., priority 2018, dated 2024)

Key:
Assay type in all cases: cell-based
[1] = system: Nrf2 transcription factor; assay: AREc32 luciferase reporter assay; details: Homo sapiens; AREc32 cells, 19 hours; concentration required to increase GST ARE luciferase reporter activity by 2-fold; read-out: NRF2 ARE 2-Fold (EC2×)
From the text: A. AREc32 Luciferase Reporter Assay
The AREc32 luciferase reporter assay allows for quantitative assessment of the endogenous activity of the Nrt2 transcription factor in cultured mammalian cells. AREc32 cells are derived from MCF-7 human breast carcinoma cells that were stably transfected with a reporter construct that contains the firefly luciferase gene located downstream of eight copies of the rat GSTA2 antioxidant response element (ARE) sequence (Wang et al., 2006; Concept Life Sciences Integrated Discovery and Development Services Ltd (CLSIDDS)). Active Nrf2 binds to the ARE sequences and increases expression of the firefly luciferase gene. To assess the Nrf2-activating potential of the test compounds, AREc32 cells were plated in black […] plates at a density of 20,000 cells per well in triplicate in DMEM+10% FBS+0.8 mg/mL Geneticin and incubated at 37° C. with 5% CO2 in a humidified atmosphere. The next day, cells were treated with DMSO (vehicle) or test compound (concentration ranges of 0.4-200 nM or 3.9-2000 nM) for 19 hours. Luciferase activity was determined using the ONE-Glo Luciferase assay (Promega). The luminescence signal was measured on a BMG Pherastar microplate reader. The mean luminescence value from test compound-treated wells was normalized to that from DMSO-treated wells and was represented as fold-induction. Data were analyzed using GraphPad Prism version 6.00 for Windows, GraphPad Software, La Jolla Calif. USA. A non-linear regression curve with log (agonist) vs. response using a variable slope was used to fit the data. Where applicable, a maximum threshold value of 50-fold over DMSO was set. EC2× values were interpolated from the curve. EC2× corresponds to the concentration of test compound required to increase GST ARE Luciferase reporter activity by 2-fold.

[2] = system: IL-17A; assay: IL-17 release from differentiated primary human T-cells (IL-17A HTRF assay); details: primary human CD4+ T cells differentiated into Th17 cells, 45-hour incubation, IL-17A in supernatant; read-out: hIL17 IC50
Description: C. IL-17 Release from Differentiated Primary Human T-Cells and Cell Viability
Primary human cryopreserved CD4+ T Cells (Lonza) were thawed according to the manufacturer's recommendations and plated either in Lymphocyte Growth Medium-3 (LGM-3) or X-VIVO 20 media (Lonza) in 96-well tissue culture plates at a density of ˜2×10^5 cells per well, and allowed to recover for approximately 4 hours at 37° C. with 5% CO2 in a humidified atmosphere. After the recovery step, DMSO (vehicle) or test compound at doses ranging from 2 to 500 nM or 4 to 1000 nM in a three-fold dilution series was added to the cells. Three replicate wells were tested for each treatment condition. Final DMSO concentration in each well was 0.1%. Immediately after treatment, CD4+ T cells were activated by adding Dynabeads Human T-Activator CD3/CD28 (Life Technologies; bead-to-cell ratio of 1:2.5) and differentiated into Th17 cells by adding a mixture of the following cytokines: transforming growth factor-β (TGF-β, 5 ng/mL), IL-6 (20 ng/mL), IL-23 (20 ng/mL), and IL-1β (10 ng/mL). Undifferentiated control cells received only cytokine IL-2 (50 ng/mL). All human recombinant cytokines were purchased from R&D Systems. Following a 45-hour incubation at 37° C. with 5% CO2 in a humidified atmosphere, the plates were centrifuged for 3 minutes at 250×g, and half of the supernatant was transferred to anew plate to be used in the IL-17A assay (see below). Cell viability was assessed in the original plate using the CyQuant Direct Assay (Life Technologies). CyQuant reagent (an amount equal to 10% of remaining media volume) was added to the wells, and the plates were then incubated at 37° C. for 75 min. Fluorescence was read on a SpectraMax M2e spectrophotometer at 480 nm (excitation) and 535 nm (emission) wavelengths. CyQuant values from test compound samples were normalized to those from DMSO-treated samples. The concentration of IL-17A in the supernatant was measured using the Homogeneous Time-Resolved Fluorescence (HTRF) assay (Cisbio Bioassays) according to the manufacturer's protocol. The assay was performed at room temperature in low volume, solid white 384-well plates (Greiner Bio-One). Samples and standards (serially-diluted human recombinant IL-17A (0 to 5,000 pg/mL concentration range; Cisbio Bioassays) were incubated with the anti-human IL-17A antibody conjugates (the HTRF donor and acceptor pair) for 16 hours and fluorescence was measured using a Pherastar FS microplate reader (BMG Labtech) in the HTRF mode (excitation at 337 nm and emission at 665 nm and 620 nm). IL-17A levels were assessed in duplicate aliquots of supernatant from each well resulting in a total of six readings per test condition. The 665 nm/620 nm signal ratio was calculated and the concentration of IL-17A in each sample was determined by interpolation from the standard curve. The amount of IL-17A from test compound treated samples were normalized to that of the vehicle-treated samples, set to 100%. Data were analyzed using GraphPad Prism (GraphPad Software, La Jolla California USA). Concentrations of test compound were transformed by taking the logarithm of each concentration used. The IC50 values for compound-mediated reduction in IL-17A levels and cell viability were determined by non-linear regression analysis using the log(inhibitor) vs. normalized response with variable slope equation. Inhibition that is closely correlated with reduced viability is considered to be non-specific.

[3] = biological target: T1, Human RAR-related Orphan Receptor Gamma (RORγ) (Homo sapiens, UniProt P51449); assay: RORγ assay (GAL4-RORγ hybrid luciferase reporter, Indigo Biosciences); details: inverse-agonist activity, GAL4-RORγ reporter cells, 23 hours
T1 sequence (P51449 269-508 limits assumed): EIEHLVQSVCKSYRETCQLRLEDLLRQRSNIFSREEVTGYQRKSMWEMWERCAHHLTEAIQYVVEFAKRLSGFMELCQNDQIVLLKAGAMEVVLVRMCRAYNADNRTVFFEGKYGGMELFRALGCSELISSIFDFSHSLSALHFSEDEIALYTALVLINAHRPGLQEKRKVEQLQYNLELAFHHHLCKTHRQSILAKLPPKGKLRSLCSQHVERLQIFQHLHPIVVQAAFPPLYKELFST
From the text: B. RORγ Assay and Cell Viability
The RORγ assay system was purchased from Indigo Biosciences. This nuclear receptor assay utilizes a human cell line that has been engineered to express a hybrid form of the Human RAR-related Orphan Receptor Gamma (RORγ) at high levels. The N-terminal DNA binding domain (DBD) of the native RORγ receptor was substituted with the yeast GAL4-DBD to generate the GAL4-RORγ hybrid nuclear receptor. The reporter cell line is transfected with a plasmid that encodes the beetle luciferase gene under the control of the GAL4 upstream activating sequence (UAS). GAL4 binds to the UAS and increases transcription of downstream target genes. The GAL4-RORγ hybrid is constitutively active; therefore, the principle application of this reporter assay system is to screen test compounds to quantify inverse-agonist activities against human RORγ. Because the ligand binding domain (LBD) of RORγ is identical to the LBD of RORγt, this assay is an accurate surrogate for evaluating activity of experimental ligands against RORγt. To assess the RORγ inverse-agonist activity of the test compounds, reporter cells were plated in white 96-well plates in triplicate and were treated with DMSO (vehicle) or test compound (concentration ranges of 7.8-2000 nM) at 37° C. with 5% CO2 in a humidified atmosphere for 23 hours. After this incubation, luciferin was added to the wells and luciferase activity was determined by measuring the luminescence signal using a BMG Pherastar microplate reader. Viability was determined using the Live Cell Multiplex Assay (Indigo Biosciences). Values from test compound samples were normalized to those from DMSO-treated samples. Data were analyzed using GraphPad Prism version 6.00 for Windows (GraphPad Software, La Jolla Calif. USA). A non-linear regression analysis with log (inhibitor) vs. normalized response using a variable slope was applied to fit the data and determine the IC50 values for inhibition of RORγ and cell viability. Inhibition that is closely correlated with reduced viability is considered to be non-specific.

Structure (SMILES) | EC (2-fold) [1] [µM] | IC50 [2] [nM] | IC50 [3] [nM]
C[C@H]1C(=O)C(C#N)=C[C@@]2(C)c3c(c(-c4ccccc4)nn3-c3ccc(-c4ccccc4)cc3)CC[C@H]12 [T21] | 0.161 | 19 | 80
C[C@H]1C(=O)C(C#N)=C[C@@]2(C)c3nn(-c4ccc(-c5ccccc5)cc4)c(-c4ccccc4)c3CC[C@H]12 [T22] | 1.05 | 56 | 175
C[C@H]1C(=O)C(C#N)=C[C@@]2(C)c3c(c(-c4ccccc4)nn3-c3cccc4ccccc34)CC[C@H]12 [T23] | 0.19 | 89 | 118
C[C@H]1C(=O)C(C#N)=C[C@@]2(C)c3nn(-c4cccc5ccccc45)c(-c4ccccc4)c3CC[C@H]12 [T24] | 0.827 | 30 | 284
CC(C)c1ccc(-n2nc(-c3ccccc3)c3c2[C@]2(C)C=C(C#N)C(=O)[C@H](C)[C@H]2CC3)cc1 [T25] | 0.149 | 28 | 92
CC(C)c1ccc(-n2nc3c(c2-c2ccccc2)CC[C@@H]2[C@@H](C)C(=O)C(C#N)=C[C@@]32C)cc1 [T26] | 0.944 | 61 | 104
C[C@H]1C(=O)C(C#N)=C[C@@]2(C)c3c(c(-c4ccccc4)nn3C3CCOCC3)CC[C@H]12 [T27] | 0.204 | 61 | 132
C[C@H]1C(=O)C(C#N)=C[C@@]2(C)c3nn(C4CCOCC4)c(-c4ccccc4)c3CC[C@H]12 [T28] | 0.719 | 136 | 90
Cc1ccc(-n2nc(-c3ccccc3)c3c2[C@]2(C)C=C(C#N)C(=O)[C@H](C)[C@H]2CC3)nc1 [T31] | 0.298 | 100 | 91
Cc1ccc(-n2nc(-c3ccccc3)c3c2[C@]2(C)C=C(C#N)C(=O)[C@H](C)[C@H]2CC3)cn1 [T32] | 0.258 | 170 | 124
C[C@H]1C(=O)C(C#N)=C[C@@]2(C)c3c(c(-c4ccccc4)nn3-c3cccc(-c4cccnc4)c3)CC[C@H]12 [T34] | 0.245 | 87 | 87
